Results as given in patent US7388006B2, “Non-steroidal progesting” (Bayer Schering Pharma AG, priority 2002, dated 2008).

Key:
[1] = test system: ovulation in adult female rats; assay: In vivo test on progestogenic activity - ovulation inhibition (rat); details: for Ovulation inhibition, result in words / Ovulation inhibition, factor compared to R5020: rat; for Ovulation inhibition, factor compared to R5020: potency relative to R5020
Experimental: Before the treatment is started, two […] cycles of female rats (weight: 190 to 210 g) were monitored. Only animals having a regular 4 day-cycle are used for the subsequent test. Starting in the metoestrus, the test compound is administered for 4 days (day 1 to 4) and the cycle is controlled thereafter.
For subcutaneous application, the test compounds are dissolved in benzyl benzoate/castor oil (1+9 v/v) and the daily dose is administered in a volume of 1 ml/kg body weight.
For peroral application, the test compounds are suspended in a carrier liquid (85 mg Myrj^R in 100 ml 0.9% w/v NaCl solution) and the daily dose is administered in a volume of 2 ml/kg body weight.
On day 4, after the application of the test compound, those animals having estrus or metoestrus are ovariectomized under ether anesthesia on one side. Preparations of the tubes are prepared and they are investigated for ova by means of microscope. On day 5 all animals (intact and partly ovariectomized) are killed with carbon dioxide, the tubes are preserved and analyzed in the same way. It is then determined, as a percentage, in how many animals ovulation was inhibited. […] Accordingly, this compound is to be regarded as having strong, progestational activity.

PR-A = type: cell-based
Experimental: The method for screening for PR isoform-specific progestins according to the present invention is carried out with first and second SK-N-MC cells stably transfected with a plasmid expressing the HPR-A (first cells) or the hPR-B (second cells) and the LUC reporter gene linked to the hormonally responsive MTV promoter.
The cells are cultured in Minimum Essential Medium with Earl's Salts (S-MEM, without L-glutamine; Gibco BRL, no. 21090-022), supplemented with 10% fetal calf serum (FCS), penicillin 100U/streptomycin 100 μg/ml (Biochrom, no. A2213), L-glutamine 4 mmol/l (Gibco BRL, no. 25030-024), sodium pyruvate 1 mmol/l (Biochrom, no. L0473) and 1×non-essential amino acids (Biochrom, no. K0293) at a temperature of 37° C. and in an atmosphere of 5% carbon dioxide.
For the transcription assay, the cells are seeded onto 96-well dishes (2×10^4 cells/dish) and cultured in a medium as described above, with the exception that the FCS is replaced by a 3% charcoal stripped FCS. 48 hours later, cells are contacted with prediluted test compounds. For determination of agonistic activity, cells are cultured in the presence of 6 increasing concentrations (10^−6 to 10^−11 mol/l) of test progestins. As a positive control for reporter gene induction cells are treated with 10^−6 to 10^−11 mol/l R5020 (promegestone). As a negative control for reporter gene induction, cells are cultured in 1% ethanol.
After incubation with test progestins for 24 hours, the medium is removed and cells are lysed with 20 μl of lysis buffer (Luciferase Assay System E 153A; Promega) and under agitation of the plate for 101 min. After addition of 30 μl of luciferase reagent (Luciferase Assay System E 151A+152A; Promega) within 30 seconds per plate, the activity of the luciferase reporter gene product is determined in the cell lysates by means of a Microlite ML 3000 microtiter plate luminometer (Dynatech) in cycle mode.
Evaluation of the response gives the efficacy [%], and evaluation of the EC50s values gives the potency [nM]. Calculation of the agonistic activity is conducted as follows:
The LUC activity [%] for the measured data points is calculated as follows:
[formula] wherein CI=100% stimulation (R5020, 10^−7 mol/l) and CO=0% stimulation (ethanol, 1%).
Thus, the efficacy [%] is calculated according to: […]
The potency [nM], i.e. the EC50, is determined graphically.

O=C1OCc2cc(NC(=O)C(O)(CC3(c4cc(C(F)(F)F)ccc4F)CC3)C(F)(F)F)ccc21 (single isomer, unassigned; (+)) [((+)-1), (+)-5-{2-hydroxy-3-[1-(2-fluoro-5-trifluoromethylphenyl)-cyclopropyl]-2-trifluoromethyl-propionylamino}-phthalide]
inhibition at 0.01 mg/kg ([1]; Rattus norvegicus, dose 10 μg/kg, days 1 to 4, female rats): 0% | inhibition at 0.03 mg/kg ([1]; Rattus norvegicus, dose 30 μg/kg, days 1 to 4, female rats): 14% | inhibition at 0.1 mg/kg ([1]; Rattus norvegicus, dose 100 μg/kg, days 1 to 4, female rats): 100% | Ovulation inhibition, result in words [1]: at least as potent as the standard progestin | Ovulation inhibition, factor compared to R5020 ([1]; listed as ((+)-l)): 1 to 2 | Ovulation inhibition, factor compared to R5020 ([1]; listed as ((+)−1)): 1-2 | Ovulation inhibition, result in words ([1]; listed as ((+)-l)): efficiently inhibited ovulation | Δ agonism efficacies (A-B) (PR-A; PR-A efficacy minus PR-B efficacy): 64 | PR isoform selectivity in words (PR-A; PR-A versus PR-B): selective PR-A agonist
